Our source for the Kd and IC50 values is the Kinase Knowledgebase extract (Sharma et al. 2016).

One assay deals with MAPK14 (UniProt Q16539). Kind of assay: Inhibition of MAPK14 Kinase Activity.
MAPK14, sequence (Q16539 whole entry, looked up): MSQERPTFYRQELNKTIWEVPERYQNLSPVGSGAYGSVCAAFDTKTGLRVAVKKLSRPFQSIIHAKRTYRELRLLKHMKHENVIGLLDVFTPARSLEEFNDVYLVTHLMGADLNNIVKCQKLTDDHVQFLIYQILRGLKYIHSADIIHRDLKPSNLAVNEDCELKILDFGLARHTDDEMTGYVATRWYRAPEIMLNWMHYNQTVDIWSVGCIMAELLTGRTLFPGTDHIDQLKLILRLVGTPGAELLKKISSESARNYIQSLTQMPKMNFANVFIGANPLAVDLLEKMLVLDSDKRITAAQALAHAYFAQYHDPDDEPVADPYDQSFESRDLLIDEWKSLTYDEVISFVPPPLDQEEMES
Consider `CC(C)(C)c1cc(NC(=O)Nc2ccccn2)n(-c2ccccc2)n1`, for which the Kd (commonly the concentration at which binding is half-saturated) came to 400 nM.

Compound `CC(C)(C)c1cc(NC(=O)Nc2cccc(N)c2)n(-c2ccccc2)n1` came in with a Kd of 100 nM. This Kd lies about 4-fold lower than the previous one.

`CC(C)(C)c1cc(NC(=O)Nc2ccccc2)n(-c2ccccc2)n1` gave a Kd of 13 nM. This Kd is about 7.7-fold lower than that of the compound before.

`CC(C)(C)c1cc(NC(=O)Nc2cccc3ccccc23)n(-c2ccccc2)n1`: the Kd was 5 nM. Against the preceding compound, the Kd is about 2.6-fold lower.

The compound `Cc1ccc(-n2nc(C(C)(C)C)cc2NC(=O)Nc2ccccc2F)cc1` returned a Kd of 14 nM.

Regarding `CC(C)(C)c1cc(NC(N)=O)n(-c2ccccc2)n1`, the Kd is greater than 7000 nM.

For `Cc1cc(NC(=O)Nc2ccccc2)n(-c2ccccc2)n1`, the Kd is greater than 7000 nM.

In turn, `CC(C)(C)c1cc(NC(=O)Nc2ccncc2)n(-c2ccccc2)n1` had a Kd of 1200 nM. In other words, the single-digit micromolar range.

The compound `Cc1ccc(-n2nc(C(C)(C)C)cc2NC(=O)Nc2ccccc2)cc1C` returned a Kd of 4 nM.

The compound `Cc1ccc(-n2nc(C(C)(C)C)cc2NC(=O)Nc2cccc3ccccc23)cc1` yielded a Kd of 1 nM.

In the case of `CC(C)(C)c1cc(NC(=O)Nc2ccccc2)n(-c2ccc(N)cc2)n1`, the Kd came out at 7 nM.

For `CC1(c2cc(NC(=O)Nc3ccccc3)n(-c3ccccc3)n2)CCCCC1`, the Kd was found to be 22 nM.

Turning to `CC(C)(C)c1cc(NC(=O)NC2CCCCC2)n(-c2ccccc2)n1`, the Kd was 130 nM. Against the preceding compound, the Kd is about 5.9-fold higher.

With `COc1cccc(-n2nc(C(C)(C)C)cc2NC(=O)Nc2ccccc2)c1`, the Kd stood at 19 nM. This Kd is about 6.8-fold lower than that of the compound before.

`CC1(c2cc(NC(=O)Nc3ccccc3)n(-c3ccccc3)n2)CCOCC1` yielded a Kd of 280 nM.

As to `CC(C)c1cc(NC(=O)Nc2ccccc2)n(-c2ccccc2)n1`, the Kd was determined as 330 nM. The Kd values of the last two compounds are within 1.5-fold of each other.

Consider `CC(C)(c1ccccc1)c1cc(NC(=O)Nc2ccccc2)n(-c2ccccc2)n1`, for which the Kd was found to be 760 nM.

In turn, `COCC(C)(C)c1cc(NC(=O)Nc2ccccc2)n(-c2ccccc2)n1` showed a dissociation constant (Kd) of 1400 nM.

With `CC(C)(C)c1cc(NC(=O)NC2Cc3ccccc3C2)n(-c2ccccc2)n1`, the dissociation constant (Kd) came out at 14 nM.

`CC(C)(C)c1cc(NC(=O)Nc2ccc(N)cc2)n(-c2ccccc2)n1` had a Kd of 318 nM.

Compound `CC(C)(C)c1cc(NC(=O)NCCc2ccccc2)n(-c2ccccc2)n1` yielded a Kd of 260 nM.

In turn, `Cc1ccccc1-n1nc(C(C)(C)C)cc1NC(=O)Nc1ccccc1` registered a Kd of 200 nM.

Consider `Cc1cccc(NC(=O)Nc2cc(C(C)(C)C)nn2-c2ccccc2)c1C`, for which the dissociation constant Kd stood at 3 nM.

Consider `Cc1ccc(-n2nc(C(C)(C)C)cc2NC(=O)Nc2ccccc2)cc1`, for which the Kd came to 3 nM.

`Cc1cccc(-n2nc(C(C)(C)C)cc2NC(=O)Nc2ccccc2)c1` yielded an equilibrium dissociation constant (Kd) of 2 nM. This Kd is about 1.5-fold lower than that of the compound before.

`CC(C)(C)c1cc(NC(=O)Nc2ccccc2)n(-c2ccc3ccccc3c2)n1` displayed a Kd of 8 nM.

In turn, `CC(C)(C)c1cc(NC(=O)Nc2ccccc2)n(C2CCCCC2)n1` registered an equilibrium dissociation constant (Kd) of 500 nM.

`CCC(C)(C)c1cc(NC(=O)Nc2ccccc2)n(-c2ccccc2)n1`: the Kd worked out at 12 nM.

On to `CC(C)(C)c1cc(NC(=O)Nc2ccc(Cl)cc2)n(-c2ccccc2)n1`, for which the Kd came to 8 nM.

For `CC(C)(C)c1cc(NC(=O)Nc2ccccc2)n(-c2ccncc2)n1`, the equilibrium dissociation constant (Kd) turned out to be 21 nM.

`O=C(Nc1ccccc1)Nc1cc(C2CCCCC2)nn1-c1ccccc1`: the Kd was greater than 400 nM.

Compound `CC(C)(C)c1cc(NC(=O)NCc2ccccc2)n(-c2ccccc2)n1` registered a Kd of 47 nM.

`COc1ccc(-n2nc(C(C)(C)C)cc2NC(=O)Nc2ccccc2)cc1` came in with a Kd of 31 nM.

`CC(C)(C)c1cc(NC(=O)Nc2cccnc2)n(-c2ccccc2)n1` yielded a Kd of 420 nM.

A further assay deals with CDK2 (UniProt P24941). Kind of assay: Enzyme Assay.
On to `CN1CCC(c2c(O)cc(O)c3c2O/C(=C\c2ccccc2Cl)C3=O)CC1`, for which the IC50 (as a rule, the concentration that gives 50% inhibition) is 3970 nM.

`CN(C)S(=O)(=O)c1ccc(NN=C2C(=O)Nc3ccc(O)cc32)cc1` gave an IC50 of 10 nM.

With `CN1CCC(c2c(O)cc(O)c3c2O/C(=C\c2ccc([N+](=O)[O-])cc2)C3=O)CC1`, the IC50 turned out to be 310 nM.

The compound `O=C1Nc2ccc(Br)cc2C1=NNc1ccccc1` gave an IC50 greater than 10000 nM.

The compound `O=C1Nc2ccccc2C1=NNc1ccccc1` showed an IC50 greater than 10000 nM.

The compound `COc1ccc2c(c1)C(=NNc1ccccc1)C(=O)N2` returned an IC50 greater than 10000 nM.

For `CN1CCC(c2c(O)cc(O)c3c2O/C(=C\c2ccc(S(N)(=O)=O)cc2)C3=O)CC1`, the IC50 was determined as 30 nM.

In turn, `CN1CCC(c2c(O)cc(O)c3c2O/C(=C\c2ccccc2)C3=O)CC1` had an IC50 of 1280 nM.
